Test results as given in patent US12691070B2, “Cationic lipids and preparation method thereof” (RiboX Therapeutics HK Limited, priority 2023, dated 2026).

Key:
[1] = LNP size and polydispersity index (PDI) by dynamic light scattering; format: physicochemical; conditions: LNP with cirRNA (SEQ ID NO: 1); for Size: in nm (unit assumed)
Procedure: (§1) Ionizable lipid, DSPC, Cholesterol and DMG-PEG 2000 were mixed at a molar ratio of 50:10:38.5:1.5 in absolute ethanol. Circular RNA and linear mRNA payloads were suspended in 25 mM Acetate Buffer (pH 4.5). To form LNPs, three volumes of luciferase encoding RNA, in the form of cirRNA (SEQ ID NO:1) and mRNA (SEQ ID NO:2) respectively, were mixed with one volume of lipids in ethanol solution by microfluidic mixing with the Nanoassemblr Ignite (Precision Nanosystems) at a flow rate of 12 ml/min. The molar ratio of ionizable lipid to ribonucleotide was 15 or 6. The final lipid concentration in solution ranged from 1.5 mM to 6 mM. After encapsulation, the particles were dialyzed twice against PBS.
(§2) The LNP size and polydispersity index (PDI), determined by dynamic light scattering (DLS), and zeta potential were measured by a Zetasizer machine (Malvern). RNA concentration and encapsulation efficacy were analyzed by the Quant-IT Ribogreen kit by calculating the percentage encapsulation at 100%−(RNA-LNPs/RNA-LNPs with Triton X-100).

RAW 264.7 cells [2] = test: In vitro expression of firefly-luciferase, RAW 264.7; format: cell-based; conditions: cirRNA (SEQ ID NO: 1) LNPs; firefly-luciferase luminescence; RAW 264.7 cells
Procedure: (§3) RAW 264.7 and Hep G2 cells were transfected with 100 ng/mL of RNA-LNPs encoding for firefly-luciferase. At 72 hours post transfection, the cells were washed and lysed. The luciferase expression was determined in the cell lysates with the luciferase assay reagent kit (Promega), according to the kit protocol, luciferase activity was measured by a luminometer.

BALB/C mice = test: In vivo expression, whole-body luminescence (IVIS); conditions: cirRNA (SEQ ID NO: 1) LNPs, BALB/C mice
Procedure: 6-8 week old, female BALB/C mice were injected with 0.05 mg*kg-1 of RNA-LNPs encoding for firefly-luciferase by intravenous injection. At 6 hours post injection, animals were intraperitoneally injected with 15 mg/ml of Luciferin substrate and whole-body luminescence was determined by a bioluminescent in vivo imaging system (IVIS).

Hep G2 cells [3] = test: In vitro toxicity (CellTiter-Glo cell viability), Hep G2; format: cell-based; conditions: cirRNA (SEQ ID NO: 1) LNPs; Hep G2 cells;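 note: percent of untreated cells luminescence signal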
Procedure: (§4) RAW 264.7 and Hep G2 cells were transfected with 1 μg/mL RNA-LNPs. At 72 hours post transfection, cell viability was determined with the CellTiter-Glo® reagent kit, according to the kit protocol, measured by a luminometer.
(§5) The cell viability was calculated according to the following formula: […]

[4] = LNP zeta potential (Zetasizer); format: physicochemical; conditions: LNP with cirRNA (SEQ ID NO: 1)
Procedure: as §1, §2

Hep G2 cells [5] = test: In vitro expression of firefly-luciferase, Hep G2; format: cell-based; conditions: cirRNA (SEQ ID NO: 1) LNPs; firefly-luciferase luminescence; Hep G2 cells
Procedure: as §3

RAW 264.7 cells [6] = test: In vitro toxicity (CellTiter-Glo cell viability), RAW 264.7; format: cell-based; conditions: cirRNA (SEQ ID NO: 1) LNPs; RAW 264.7 cells;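 note: percent of untreated cells luminescence signal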
Procedure: as §4, §5

[7] = RNA encapsulation efficacy by Quant-IT Ribogreen kit; format: physicochemical; conditions: LNP with cirRNA (SEQ ID NO: 1)
Procedure: as §1, §2

CCCCC/C=C\C/C=C\CCCCCCCCN(CCCCCCCC(=O)OC(CCCCCCCC)CCCCCCCC)CCOC(=O)NCCN1CCN(C)CC1 [Lipid 135, heptadecan-9-yl 8-((2-(((2-(4-methylpiperazin-1-yl)ethyl)carbamoyl)oxy)ethyl)((9Z,12Z)-octadeca-9,12-dien-1-yl)amino)octanoate]
PDI [1]: 0.1211
Size [1]: 150.9
In vitro Expression RAW (RAW 264.7 cells [2]): 9.80E+04
In vivo Expression (Whole Body) (BALB/C mice): 3.51E+07
In vitro Viability HepG2 (Hep G2 cells [3]): 91%
Zeta (mV) [4]: 8.469 mV
In vitro Expression HepG2 (Hep G2 cells [5]): 2.30E+06
In vitro Viability RAW (RAW 264.7 cells [6]): 103%
Encapsulation Efficiency % [7]: 100%

CCCCCCOC(=O)CCCCCCCCCCN(CCCCCCCCCCC(=O)OCCCCCC)CCOC(=O)NCCN(C)C [Lipid 136, hexyl 10-(11-(hexyloxy)-11-oxoundecyl)-2-methyl-6-oxo-7-oxa-2,5,10-triazahenicosan-21-oate]
PDI [1]: 0.146
Size [1]: 143.7
In vitro Expression RAW (RAW 264.7 cells [2]): 1.93E+02
In vivo Expression (Whole Body) (BALB/C mice): 6.14E+03
In vitro Viability HepG2 (Hep G2 cells [3]): 20%
Zeta (mV) [4]: 16.11 mV
In vitro Expression HepG2 (Hep G2 cells [5]): 2.15E+03
In vitro Viability RAW (RAW 264.7 cells [6]): 8%
Encapsulation Efficiency % [7]: 95%

CCCCCCOC(=O)CCCCCCCCCCN(CCCCCCCCCCC(=O)OCCCCCC)CCOC(=O)NCCCN(CC)CC [Lipid 137, hexyl 3-ethyl-12-(11-(hexyloxy)-11-oxoundecyl)-8-oxo-9-oxa-3,7,12-triazatricosan-23-oate]
PDI [1]: 0.1423
Size [1]: 224.1
In vitro Expression RAW (RAW 264.7 cells [2]): 1.21E+02
In vivo Expression (Whole Body) (BALB/C mice): 1.84E+05
In vitro Viability HepG2 (Hep G2 cells [3]): 12%
Zeta (mV) [4]: 19.29 mV
In vitro Expression HepG2 (Hep G2 cells [5]): 1.57E+03
In vitro Viability RAW (RAW 264.7 cells [6]): 9%
Encapsulation Efficiency % [7]: 92%

CCCCCCOC(=O)CCCCCCCCCCN(CCCCCCCCCCC(=O)OCCCCCC)CCOC(=O)NCCN1CCN(C)CC1 [Lipid 138, dihexyl 11,11′-((2-(((2-(4-methylpiperazin-1-yl)ethyl)carbamoyl)oxy)ethyl)azanediyl)diundecanoate]
PDI [1]: 0.1821
Size [1]: 130.8
In vitro Expression RAW (RAW 264.7 cells [2]): 9.75E+01
In vivo Expression (Whole Body) (BALB/C mice): 1.30E+05
In vitro Viability HepG2 (Hep G2 cells [3]): 12%
Zeta (mV) [4]: 15.82 mV
In vitro Expression HepG2 (Hep G2 cells [5]): 6.75E+01
In vitro Viability RAW (RAW 264.7 cells [6]): 10%
Encapsulation Efficiency % [7]: 96%

CCCCCCCCC(CCCCCCCC)OC(=O)CCCCCCCN(CCCCCCCCOC(=O)C(CCCCCC)CCCCCCCC)CCOC(=O)NCCCN(C)C (stereo not drawn) [Lipid 146, heptadecan-9-yl 11-(8-((2-hexyldecanoyl)oxy)octyl)-2-methyl-7-oxo-8-oxa-2,6,11-triazanonadecan-19-oate]
PDI [1]: 0.2699
Size [1]: 59.34
In vitro Expression RAW (RAW 264.7 cells [2]): 8.92E+04
In vivo Expression (Whole Body) (BALB/C mice): 4.74E+06
In vitro Viability HepG2 (Hep G2 cells [3]): 41%
Zeta (mV) [4]: 20.28 mV
In vitro Expression HepG2 (Hep G2 cells [5]): 9.18E+05
In vitro Viability RAW (RAW 264.7 cells [6]): 99%
Encapsulation Efficiency % [7]: 87%

CCCCCCCCC(CCCCCCCC)OC(=O)CCCCCCCN(CCCCCCCCOC(=O)C(CCCCCC)CCCCCCCC)CCOC(=O)NCCCn1ccnc1 (stereo not drawn) [Lipid 147, 8-((2-(((3-(1H-imidazol-1-yl)propyl)carbamoyl)oxy)ethyl)(8-(heptadecan-9-yloxy)-8-oxooctyl)amino)octyl 2-hexyldecanoate]
PDI [1]: 0.07303
Size [1]: 53.54
In vitro Expression RAW (RAW 264.7 cells [2]): 7.92E+03
In vivo Expression (Whole Body) (BALB/C mice): 5.02E+07
In vitro Viability HepG2 (Hep G2 cells [3]): 87%
Zeta (mV) [4]: 4.888 mV
In vitro Expression HepG2 (Hep G2 cells [5]): 1.60E+04
In vitro Viability RAW (RAW 264.7 cells [6]): 65%
Encapsulation Efficiency % [7]: 86%

CCCCCCCCC(CCCCCCCC)OC(=O)CCCCCCCN(CCCCCCCCOC(=O)C(CCCCCC)CCCCCCCC)CCOC(=O)NCCN1CCCCC1 (stereo not drawn) [Lipid 149, 8-((8-(heptadecan-9-yloxy)-8-oxooctyl)(2-(((2-(piperidin-1-yl)ethyl)carbamoyl)oxy)ethyl)amino)octyl 2-hexyldecanoate]
PDI [1]: 0.02962
Size [1]: 71.14
In vitro Expression RAW (RAW 264.7 cells [2]): 1.91E+04
In vivo Expression (Whole Body) (BALB/C mice): 6.07E+07
In vitro Viability HepG2 (Hep G2 cells [3]): 123%
Zeta (mV) [4]: 9.196 mV
In vitro Expression HepG2 (Hep G2 cells [5]): 2.08E+05
In vitro Viability RAW (RAW 264.7 cells [6]): 100%
Encapsulation Efficiency % [7]: 88%

CCCCCCCCCCCOC(=O)CCCCCN(CCCCCC(=O)OCCCCCCCCCCC)CCOC(=O)NCCN1CCCCC1 [Lipid 150, diundecyl 6,6′-((2-(((2-(piperidin-1-yl)ethyl)carbamoyl)oxy)ethyl)azanediyl)dihexanoate]
PDI [1]: 0.05565
Size [1]: 91.37
In vitro Expression RAW (RAW 264.7 cells [2]): 6.81E+02
In vivo Expression (Whole Body) (BALB/C mice): 7.27E+05
In vitro Viability HepG2 (Hep G2 cells [3]): 114%
Zeta (mV) [4]: 17.84 mV
In vitro Expression HepG2 (Hep G2 cells [5]): 1.44E+04
In vitro Viability RAW (RAW 264.7 cells [6]): 104%
Encapsulation Efficiency % [7]: 79%

CCCCCCCCCCCOC(=O)CCCCCN(CCCCCC(=O)OCCCCCCCCCCC)CCOC(=O)NCCN1CCCC1 [Lipid 151, diundecyl 6,6′-((2-(((2-(pyrrolidin-1-yl)ethyl)carbamoyl)oxy)ethyl)azanediyl)dihexanoate]
PDI [1]: 0.1693
Size [1]: 98.37
In vitro Expression RAW (RAW 264.7 cells [2]): 3.27E+01
In vivo Expression (Whole Body) (BALB/C mice): 1.18E+05
In vitro Viability HepG2 (Hep G2 cells [3]): 110%
Zeta (mV) [4]: 20.18 mV
In vitro Expression HepG2 (Hep G2 cells [5]): 8.79E+03
In vitro Viability RAW (RAW 264.7 cells [6]): 99%
Encapsulation Efficiency % [7]: 89%

CCCCCCCCCCCOC(=O)CCCCCN(CCCCCC(=O)OCCCCCCCCCCC)CCOC(=O)NCCCN(C)C [Lipid 153]
PDI [1]: 0.09308
Size [1]: 71.11
In vitro Expression RAW (RAW 264.7 cells [2]): 2.44E+02
In vivo Expression (Whole Body) (BALB/C mice): 1.02E+05
In vitro Viability HepG2 (Hep G2 cells [3]): 120%
Zeta (mV) [4]: 18.95 mV
In vitro Expression HepG2 (Hep G2 cells [5]): 1.95E+04
In vitro Viability RAW (RAW 264.7 cells [6]): 104%
Encapsulation Efficiency % [7]: 89%

CCCCCCCCCCCOC(=O)CCCCCN(CCCCCC(=O)OCCCCCCCCCCC)CCOC(=O)NCCN(C)C [Lipid 154, undecyl 2-methyl-6-oxo-10-(6-oxo-6-(undecyloxy)hexyl)-7-oxa-2,5,10-triazahexadecan-16-oate]
PDI [1]: 0.1144
Size [1]: 75.25
In vitro Expression RAW (RAW 264.7 cells [2]): 2.36E+03
In vivo Expression (Whole Body) (BALB/C mice): 1.01E+05
In vitro Viability HepG2 (Hep G2 cells [3]): 106%
Zeta (mV) [4]: 25.23 mV
In vitro Expression HepG2 (Hep G2 cells [5]): 2.59E+05
In vitro Viability RAW (RAW 264.7 cells [6]): 101%
Encapsulation Efficiency % [7]: 90%

CCCCCCCCCCCOC(=O)CCCCCN(CCCCCC(=O)OCCCCCCCCCCC)CCOC(=O)NCc1ncc[nH]1 [Lipid 155, diundecyl 6,6′-((2-((((1H-imidazol-2-yl)methyl)carbamoyl)oxy)ethyl)azanediyl)dihexanoate]
PDI [1]: 0.1182
Size [1]: 92.39
In vitro Expression RAW (RAW 264.7 cells [2]): 5.98E+02
In vivo Expression (Whole Body) (BALB/C mice): 5.77E+07
In vitro Viability HepG2 (Hep G2 cells [3]): 111%
Zeta (mV) [4]: 15.16 mV
In vitro Expression HepG2 (Hep G2 cells [5]): 2.72E+04
In vitro Viability RAW (RAW 264.7 cells [6]): 101%
Encapsulation Efficiency % [7]: 76%
